Here are results for five compounds from patent US10377757B2, “Crystal form of JAK inhibitor and preparation method thereof” (CRYSTAL PHARMATECH CO., LTD, priority 2015, dated 2019).

One series deals with JAK2 (Homo sapiens, UniProt O60674). Particulars: kinase detection, selectivity over JAK3; cited from earlier work.
Series [1] is described as follows: Stability assessment: storage under stress conditions, XRPD after storage. In kind it is physicochemical. Particulars: for stability (overall conclusion in words): solid form stability on storage; for Form Change: XRPD. Here is the method:
The crystalline Form I of the present disclosure was stored under 5° C., 25° C./60% RH and 40° C./75% relative humidity for 90 days. XRPD patterns were collected after storage.
The crystalline Form II of the present disclosure was stored under 5° C. and 25° C./60% RH. XRPD patterns were collected after storage.
Phosphate Form A of the present disclosure was stored under 5° C., 25° C./60% RH and 40° C./75% RH for 90 days. XRPD patterns were collected after storage.
Two of 10 mg of phosphate Form C were respectively opened stored at 25° C./60% RH and 40° C./75% RH for 30 days. XRPD and purity of the sample were collected after storage.

Series [2] is described as follows: Hygroscopicity assessment by dynamic vapor sorption (DVS). Particulars: for weight gain under 80% Relative Humidity: DVS, 10 mg sample, 80% RH. It counts as physicochemical. Here is the method:
Hygroscopicity of 10 mg Form I of the present disclosure was tested using dynamic vapor sorption (DVS). 5.
About hygroscopicity characterization description and definition of hygroscopicity (Chinese Pharmacopoeia 2010 edition appendix XIXJ Drug hygroscopic test guidelines, test at 25° C.+/−1° C., 80% Relative Humidity) • deliquescent: sufficient water is absorbed to form a liquid; • very hygroscopic: increase in mass is equal to or greater than 15 percent; • hygroscopic: increase in mass is less than 15 percent and equal to or greater than 2 percent; • slightly hygroscopic: increase in mass is less than 2 percent and equal to or greater than 0.2 percent. • no or almost no hygroscopic: increase in mass is less than 0.2%.
Hygroscopicity of 10 mg of phosphate crystalline Form A and phosphate crystalline Form C of the present disclosure were tested using dynamic vapor sorption (DVS). The DVS plot of phosphate crystalline Form A is shown in FIG. 23, The DVS plot of phosphate crystalline Form C is shown in FIG. 24.
Pharmacopoeia 2010 edition appendix XIXJ Drug hygroscopic test guidelines, test at 25° C.+/−1° C., 80% Relative Humidity) • deliquescent: sufficient water is absorbed to form a liquid; • very hygroscopic: increase in mass is equal to or greater than 15 percent; • hygroscopic: increase in mass is less than 15 percent and equal to or greater than 2 percent; • slightly hygroscopic: increase in mass is less than 2 percent and equal to or greater than 0.2 percent. • no or almost no hygroscopic: increase in mass is less than 0.2%.

The mark [3] stands for this setting: stored at 25° C./60% RH for 30 days.
The mark [4] stands for this setting: stored at 25° C./60% RH for 90 days.
The mark [5] stands for this setting: stored at 40° C./75% RH for 90 days.

Each structure is given as a SMILES string. “Also recorded” adds a separate entry of the source.

Sequence of JAK2 (O60674 whole entry): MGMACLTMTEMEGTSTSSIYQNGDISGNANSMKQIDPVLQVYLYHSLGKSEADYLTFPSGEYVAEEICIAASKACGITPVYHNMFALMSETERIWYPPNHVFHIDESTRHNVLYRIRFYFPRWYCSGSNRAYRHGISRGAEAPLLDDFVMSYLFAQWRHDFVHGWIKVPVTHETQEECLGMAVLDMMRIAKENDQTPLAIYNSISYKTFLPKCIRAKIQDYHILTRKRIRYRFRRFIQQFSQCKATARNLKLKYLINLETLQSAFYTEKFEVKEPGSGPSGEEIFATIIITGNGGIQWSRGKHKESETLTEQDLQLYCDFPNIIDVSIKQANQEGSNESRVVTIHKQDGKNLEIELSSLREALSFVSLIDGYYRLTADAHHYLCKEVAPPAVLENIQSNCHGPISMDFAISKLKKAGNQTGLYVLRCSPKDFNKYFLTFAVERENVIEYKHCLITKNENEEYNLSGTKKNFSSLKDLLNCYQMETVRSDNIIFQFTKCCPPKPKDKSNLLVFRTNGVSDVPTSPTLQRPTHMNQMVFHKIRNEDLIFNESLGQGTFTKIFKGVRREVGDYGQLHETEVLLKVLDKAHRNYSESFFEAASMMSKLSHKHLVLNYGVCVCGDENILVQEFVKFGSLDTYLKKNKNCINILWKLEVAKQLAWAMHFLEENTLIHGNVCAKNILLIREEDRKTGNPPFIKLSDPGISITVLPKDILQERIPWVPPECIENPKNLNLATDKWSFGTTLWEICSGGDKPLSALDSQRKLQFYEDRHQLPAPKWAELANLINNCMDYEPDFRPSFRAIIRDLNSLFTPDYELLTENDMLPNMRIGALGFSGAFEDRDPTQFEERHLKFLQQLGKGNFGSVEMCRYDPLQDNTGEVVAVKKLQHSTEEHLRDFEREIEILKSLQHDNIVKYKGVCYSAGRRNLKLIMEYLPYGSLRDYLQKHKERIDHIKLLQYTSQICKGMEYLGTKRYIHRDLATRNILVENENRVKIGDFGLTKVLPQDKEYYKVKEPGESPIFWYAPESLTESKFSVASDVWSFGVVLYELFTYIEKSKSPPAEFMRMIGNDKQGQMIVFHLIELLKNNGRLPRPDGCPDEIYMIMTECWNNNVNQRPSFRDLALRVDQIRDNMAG

Turning to `CCS(=O)(=O)N1CC(CC#N)(n2cc(-c3ncnc4[nH]ccc34)cn2)C1` [Baricitinib], at JAK2, the “inhibition strength for JAK2 relative to JAK3” value was 100 times.
For the compound `CCS(=O)(=O)N1CC(CC#N)(n2cc(-c3ncnc4[nH]ccc34)cn2)C1` [Form II], the “stability (overall conclusion in words)” value in series [1] is “good stability”. The “Form Change” value in series [1] (stored at 5° C. for 90 days) and in series [1] (setting [3]) was “remains unchanged; also recorded: Form II remain unchanged” throughout.
For the compound `CCS(=O)(=O)N1CC(CC#N)(n2cc(-c3ncnc4[nH]ccc34)cn2)C1` [Form I], in series [1], the “stability (overall conclusion in words)” value was “good stability”. Moreover, the “Form Change” value in series [1] (stored at 5° C. for 90 days), in series [1] (setting [4]) and in series [1] (setting [5]) was “remains unchanged; also recorded: Form I remain unchanged” throughout. For the same compound, the hygroscopicity class result in series [2] (Chinese Pharmacopoeia 2010 definition, 25° C.+/-1° C., 80% Relative Humidity) was “slightly hygroscopic (slightly hygroscopic: increase in mass is less than 2 percent and equal to or greater than 0.2 percent)”. Further, the “weight gain under 80% Relative Humidity” value in series [2] (listed as Form I of the compound Formula (I)) was 0.44%.
Take `CCS(=O)(=O)N1CC(CC#N)(n2cc(-c3ncnc4[nH]ccc34)cn2)C1` [phosphate Form A]: in series [1], the “stability (overall conclusion in words)” value was “good stability”. Besides, the “Form Change” value in series [1] (stored at 5° C. for 90 days) is given as “remains unchanged”; in series [1] (stored at 5° C. for 90 days, listed as Phosphate Crystalline Form A) it was “Form A remain unchanged”; in series [1] (setting [4]) it was “remains unchanged”; in series [1] (stored at 25° C./60% RH for 90 days, listed as Phosphate Crystalline Form A) it was “Form A remain unchanged”; in series [1] (setting [5]), “remains unchanged”; in series [1] (stored at 40° C./75% RH for 90 days, listed as Phosphate Crystalline Form A), “Form A remain unchanged”. Further, the “weight gain under 80% Relative Humidity” value in series [2] and in series [2] (listed as phosphate Form A of the compound Formula (I)) was 0.99% each time.
Turning to `CCS(=O)(=O)N1CC(CC#N)(n2cc(-c3ncnc4[nH]ccc34)cn2)C1` [phosphate Form C], the “Form Change” value in series [1] (setting [3]) and in series [1] (stored at 40° C./75% RH for 30 days) was “Form C remain” in each case. Also, the “weight gain under 80% Relative Humidity” value in series [2] and in series [2] (listed as phosphate Form C of the compound Formula (I)) was 2.85% each time.
